Data taken from patent US20240207427A1, “SELECTIVE DRUG RELEASE FROM INTERNALIZED CONJUGATES OF BIOLOGICALLY ACTIVE COMPOUNDS” (priority 2021, published 2024).
Read-outs that look alike come from different tables or passages of the source.

Assays:
Format in all cases: cell-based
[1] = tested on: renal carcinoma cells (786-O); assay: In vitro potency (CellTiter-Glo, 96 h), 786-O; conditions: Homo sapiens, 786-0, 96 h
In short: (§1)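 IC50 (ng/mL or nmol/L) derived from CellTiter-Glo luminescence after 96 h exposure at 37 °C to serial dilutions of ADC or CPT free drug. Log-phase cells had been plated 24 h beforehand in RPMI 1640 containing 20% FBS.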

melanoma cells (A2058) = assay: In vitro potency (CellTiter-Glo, 96 h), A2058; conditions: Homo sapiens, A2058, 96 h, read-out: A2058 IC50
In short: (§2)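 Following a 24 h seeding period in 20% FBS-supplemented RPMI 1640, log-phase cells receive graded concentrations of conjugate. Incubation runs for 4 days at 37 °C, after which luminescence is recorded and IC50 calculated in ng/mL.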

[2] = tested on: pancreatic cancer cells (BxPC3); assay: In vitro potency (CellTiter-Glo, 96 h), BxPC3; conditions: Homo sapiens, BXPC-3, 96 h
In short: (§3)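 Antibody-drug conjugates, prepared as dilution series in culture medium, were added to cells seeded a day earlier in RPMI 1640 supplemented with 20% FBS. After four days at 37 °C, luminescence measured growth inhibition.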

[3] = tested on: non-small-cell lung cancer cells (Calu1); assay: In vitro potency (CellTiter-Glo, 96 h), Calu1; conditions: Homo sapiens, Calu-1, 96 h, read-out: Calu1 IC50
In short: as §2

[4] = tested on: anaplastic large cell lymphoma cells (DEL); assay: In vitro potency (CellTiter-Glo, 96 h), DEL
In short: (§4)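 Growth inhibition after 96 h at 37 °C with test article, measured by luminescence; cells in RPMI 1640, 20% FBS.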

[5] = tested on: anaplastic large cell lymphoma cells (DELBVR); assay: In vitro potency (CellTiter-Glo, 96 h), DELBVR
In short: as §1

[6] = tested on: anaplastic large cell lymphoma cells (Karpas299); assay: In vitro potency (CellTiter-Glo, 96 h), Karpas299; conditions: Homo sapiens, KARPAS-299, 96 h
In short: as §1

[7] = tested on: Hodgkin's lymphoma cells (L540cy); assay: In vitro potency (CellTiter-Glo, 96 h), L540cy
In short: as §1

Ls174T cells = assay: In vitro potency (CellTiter-Glo, 96 h), Ls174T; conditions: Homo sapiens, 96 h, 96 h
In short: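 Cells in log-phase growth are plated in RPMI 1640/20% FBS for 24 h. Serially diluted conjugates are then added, and plates are kept at 37 °C for 4 days before ATP-based luminescence gives growth inhibition.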

[8] = tested on: breast cancer cells (MDA-MB-231); assay: In vitro potency (CellTiter-Glo, 96 h), MDA-MB-231; conditions: Homo sapiens, MDA-MB-231, 96 h
In short: as §1

[9] = tested on: acute myeloid leukemia cells (MOLM-13); assay: In vitro potency (CellTiter-Glo, 96 h), MOLM-13; conditions: Homo sapiens, MOLM-13, 96 h
In short: as §3

[10] = tested on: B-lymphocyte cancer cells (SU-DHL4); assay: In vitro potency (CellTiter-Glo, 96 h), SU-DHL-4; conditions: Homo sapiens, SU-DHL-4, 96 h
In short: as §4

[11] = Table 28, CPT free drugs, renal carcinoma cells 786-O, 96 h, CellTiter-Glo, read-out: 786-O IC50
[12] = Table 28, CPT free drugs, melanoma cells A2058, 96 h, CellTiter-Glo
[13] = Table 28, CPT free drugs, pancreatic cancer cells BxPC3, 96 h, CellTiter-Glo, read-out: BxPC3 IC50
[14] = Table 28, CPT free drugs, anaplastic large cell lymphoma cells DEL, CellTiter-Glo, read-out: DEL IC50
[15] = Table 28, CPT free drugs, anaplastic large cell lymphoma cells DELBVR, CellTiter-Glo, read-out: DELBVR IC50
[16] = Table 28, CPT free drugs, anaplastic large cell lymphoma cells Karpas299, 96 h, CellTiter-Glo, read-out: Karpas299 IC50
[17] = Table 28, CPT free drugs, Hodgkin's lymphoma cells L540cy, CellTiter-Glo, read-out: L540cy IC50
[18] = Table 28, CPT free drugs, Ls174T cells, CellTiter-Glo, read-out: Ls174T IC50
[19] = Table 28, CPT free drugs, breast cancer cells MDA-MB-231, 96 h, CellTiter-Glo, read-out: MDAMB231 IC50
[20] = Table 28, CPT free drugs, acute myeloid leukemia cells MOLM-13, 96 h, CellTiter-Glo, read-out: MOLM-13 IC50
[21] = Table 28, CPT free drugs, B-lymphocyte cancer cells SU-DHL4, 96 h, CellTiter-Glo, read-out: SU-DHL-4 IC50
[22] = read-out: 786-O IC50, camptothecin free drug, 96 h
[23] = read-out: BxPC3 IC50, camptothecin free drug, 96 h
[24] = read-out: DEL IC50, camptothecin free drug, 96 h
[25] = read-out: DELBVR IC50, camptothecin free drug, 96 h
[26] = read-out: Karpas299 IC50, camptothecin free drug, 96 h
[27] = read-out: L540cy IC50, camptothecin free drug, 96 h
[28] = LS174T, read-out: Ls174T IC50, camptothecin free drug, 96 h
[29] = read-out: MDAMB231 IC50, camptothecin free drug, 96 h
[30] = read-out: MOLM-13 IC50, camptothecin free drug, 96 h
[31] = read-out: SU-DHL-4 IC50, camptothecin free drug, 96 h

CC[C@@]1(O)C(=O)OCc2c1cc1n(c2=O)Cc2c-1nc1cc(F)c(C)c(C=C(C)C)c1c2CN [Compound 6, (S)-11-(aminomethyl)-4-ethyl-8-fluoro-4-hydroxy-9-methyl-10-(2-methylprop-1-en-1-yl)-1,12-dihydro-14H-pyrano[3′,4′:6,7]indolizino[1,2-b]quinoline-3,14(4H)-dione]
IC50 ([1]; read-out: 786-O IC50, Table 28, CPT free drugs, renal carcinoma cells 786-O, 96 h, CellTiter-Glo): 5 nM
IC50 (melanoma cells (A2058)): 5 nM
IC50 ([2]; read-out: BxPC3 IC50, Table 28, CPT free drugs, pancreatic cancer cells BxPC3, 96 h, CellTiter-Glo): 8 nM
IC50 [3]: 17 nM
IC50 ([4]; read-out: DEL IC50, Table 28, CPT free drugs, anaplastic large cell lymphoma cells DEL, CellTiter-Glo): 1 nM
IC50 ([5]; read-out: DELBVR IC50, Table 28, CPT free drugs, anaplastic large cell lymphoma cells DELBVR, CellTiter-Glo): 3 nM
IC50 ([6]; read-out: Karpas299 IC50, Table 28, CPT free drugs, anaplastic large cell lymphoma cells Karpas299, 96 h, CellTiter-Glo): 4 nM
IC50 ([7]; read-out: L540cy IC50, Table 28, CPT free drugs, Hodgkin's lymphoma cells L540cy, CellTiter-Glo): 4 nM
IC50 (Ls174T cells; LS174T, read-out: Ls174T IC50, Table 28, CPT free drugs, Ls174T cells, CellTiter-Glo): 21 nM
IC50 ([8]; read-out: MDAMB231 IC50, Table 28, CPT free drugs, breast cancer cells MDA-MB-231, 96 h, CellTiter-Glo): 7 nM
IC50 ([9]; read-out: MOLM-13 IC50, Table 28, CPT free drugs, acute myeloid leukemia cells MOLM-13, 96 h, CellTiter-Glo): 4 nM
IC50 ([10]; read-out: SU-DHL-4 IC50, Table 28, CPT free drugs, B-lymphocyte cancer cells SU-DHL4, 96 h, CellTiter-Glo): 2 nM

CC[C@@]1(O)C(=O)OCc2c1cc1n(c2=O)Cc2c-1nc1cc(F)c(C)c(C3=CCOC3)c1c2CN [Compound 6d]
IC50 [1, 11]: 23 nM
IC50 (melanoma cells (A2058); [12]): 13 nM
IC50 [2, 13]: 15 nM
IC50 ([3]; Table 28, CPT free drugs, non-small-cell lung cancer cells Calu1, 96 h, CellTiter-Glo): 43 nM
IC50 [4, 14]: 3 nM
IC50 [5, 15]: 12 nM
IC50 [6, 16]: 12 nM
IC50 [7, 17]: 11 nM
IC50 (Ls174T cells; [18]): 31 nM
IC50 [8, 19]: 21 nM
IC50 [9, 20]: 6 nM
IC50 [10, 21]: 4 nM

CC[C@@]1(O)C(=O)OCc2c1cc1n(c2=O)Cc2c-1nc1cc(F)c(C)c(-c3ccc(CO)s3)c1c2CN [Compound 6e]
IC50 [1, 11]: 29 nM
IC50 (melanoma cells (A2058); [12]): 11 nM
IC50 [2, 13]: 65 nM
IC50 [3]: 155 nM
IC50 [4, 14]: 4 nM
IC50 [5, 15]: 4 nM
IC50 [6, 16]: 31 nM
IC50 [7, 17]: 18 nM
IC50 (Ls174T cells; [18]): 17 nM
IC50 [8, 19]: 57 nM
IC50 [9, 20]: 17 nM
IC50 [10, 21]: 7 nM

CC[C@@]1(O)C(=O)OCc2c1cc1n(c2=O)Cc2c-1nc1cc3c(cc1c2CN(C)C)OCO3 [Compound 7ae]
IC50 [1, 22]: 39 nM
IC50 (melanoma cells (A2058)): 11 nM
IC50 [2, 23]: 48 nM
IC50 [3]: 555 nM
IC50 [4, 24]: 8 nM
IC50 [5, 25]: 14 nM
IC50 [6, 26]: 42 nM
IC50 [7, 27]: 20 nM
IC50 (Ls174T cells; [28]): 46 nM
IC50 [8, 29]: 164 nM
IC50 [9, 30]: 165 nM
IC50 [10, 31]: 23 nM

CC[C@@]1(O)C(=O)OCc2c1cc1n(c2=O)Cc2c-1nc1cc3c(cc1c2CNCCCS(C)(=O)=O)OCO3 [Compound 7c]
IC50 [1, 22]: 5 nM
IC50 (melanoma cells (A2058)): 2 nM
IC50 [2, 23]: 5 nM
IC50 [3]: 91 nM
IC50 [4, 24]: 1 nM
IC50 [5, 25]: 2 nM
IC50 [6, 26]: 5 nM
IC50 [7, 27]: 2 nM
IC50 (Ls174T cells; [28]): 4 nM
IC50 [8, 29]: 31 nM
IC50 [9, 30]: 4 nM
IC50 [10, 31]: 3 nM

CC[C@@]1(O)C(=O)OCc2c1cc1n(c2=O)Cc2c-1nc1cc3c(cc1c2CNCCS(N)(=O)=O)OCO3 [Compound 7d]
IC50 [1, 22]: 37 nM
IC50 (melanoma cells (A2058)): 10 nM
IC50 [2, 23]: 38 nM
IC50 [3]: 1000 nM
IC50 [4, 24]: 8 nM
IC50 [5, 25]: 13 nM
IC50 [6, 26]: 39 nM
IC50 [7, 27]: 16 nM
IC50 (Ls174T cells; [28]): 18 nM
IC50 [8, 29]: 195 nM
IC50 [9, 30]: 61 nM
IC50 [10, 31]: 20 nM

CC[C@@]1(O)C(=O)OCc2c1cc1n(c2=O)Cc2c-1nc1cc3c(cc1c2CNCCCS(N)(=O)=O)OCO3 [Compound 7e]
IC50 [1, 22]: 25 nM
IC50 (melanoma cells (A2058)): 5 nM
IC50 [2, 23]: 21 nM
IC50 [3]: 503 nM
IC50 [4, 24]: 8 nM
IC50 [5, 25]: 14 nM
IC50 [6, 26]: 27 nM
IC50 [7, 27]: 13 nM
IC50 (Ls174T cells; [28]): 17 nM
IC50 [8, 29]: 124 nM
IC50 [9, 30]: 257 nM
IC50 [10, 31]: 16 nM

CC[C@@]1(O)C(=O)OCc2c1cc1n(c2=O)Cc2c-1nc1cc3c(cc1c2CNCC(O)CN1CCCCC1)OCO3 (stereo partly drawn) [Compound 7g]
IC50 [1, 22]: 33 nM
IC50 (melanoma cells (A2058)): 8 nM
IC50 [2, 23]: 29 nM
IC50 [3]: 486 nM
IC50 [4, 24]: 8 nM
IC50 [5, 25]: 14 nM
IC50 [6, 26]: 29 nM
IC50 [7, 27]: 14 nM
IC50 (Ls174T cells; [28]): 18 nM
IC50 [8, 29]: 116 nM
IC50 [9, 30]: 56 nM
IC50 [10, 31]: 18 nM

CC[C@@]1(O)C(=O)OCc2c1cc1n(c2=O)Cc2c-1nc1cc3c(cc1c2CNCCCO)OCO3 [Compound 7o]
IC50 [1, 22]: 52 nM
IC50 (melanoma cells (A2058)): 16 nM
IC50 [2, 23]: 47 nM
IC50 [3]: 839 nM
IC50 [4, 24]: 10 nM
IC50 [5, 25]: 19 nM
IC50 [6, 26]: 42 nM
IC50 [7, 27]: 26 nM
IC50 (Ls174T cells; [28]): 25 nM
IC50 [8, 29]: 275 nM
IC50 [9, 30]: 115 nM
IC50 [10, 31]: 27 nM
